{"source": "patent US20100267561A1", "about": "“HERBICIDAL PYRIDAZINONE DERIVATIVES” (priority 2007, published 2010)", "format_in_all_cases": "in vivo", "key": {"[1]": {"test_system": "umbrella sedge (Cyperus difformis)", "assay": "Test B flooded paddy test plant response", "conditions": "Cyperus difformis, read-out: Plant response rating, Sedge, Umbrella", "how_it_was_run": "(§1)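 Step one: raise plants to 2 leaves. Step two: flood pots 3 cm over the soil and apply compound into the water, keeping this depth. Step three: after 13–15 greenhouse days, score visually versus controls, 0–100, where 100 means complete control.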"}, "[2]": {"test_system": "ducksalad (Heteranthera limosa)", "assay": "Test B flooded paddy test plant response", "conditions": "Heteranthera limosa, read-out: Plant response rating, Ducksalad", "how_it_was_run": "as §1"}, "rice (Oryza sativa)": {"test_system": "rice (Oryza sativa)", "assay": "Test B flooded paddy test plant response", "conditions": "Oryza sativa, read-out: Plant response rating, Rice", "how_it_was_run": "as §1"}, "[3]": {"test_system": "barnyardgrass (Echinochloa crus-galli)", "assay": "Test B flooded paddy test plant response", "conditions": "Echinochloa crus-galli, read-out: Plant response rating, Barnyardgrass", "how_it_was_run": "as §1"}, "[4]": {"test_system": "wheat (Triticum aestivum)", "assay": "Test A pre-/postemergence plant response", "conditions": "Triticum aestivum, 240 h, read-out: Plant response rating, Wheat; for plant injury at 125 g/ha: 125 g ai/ha; for plant injury at 500 g/ha: 500 g ai/ha", "how_it_was_run": "(§2)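 Scores reflect visual plant injury relative to untreated controls on a 0–100 scale, recorded approximately 10 days after simultaneous preemergence soil spraying and postemergence spraying of one- to two-leaf seedlings grown in loam–sand.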"}, "[5]": {"test_system": "large crabgrass (Digitaria sanguinalis)", "assay": "Test A pre-/postemergence plant response", "conditions": "Digitaria sanguinalis, 240 h, read-out: Plant response rating, Crabgrass, Large; for pest or weed control at 125 g/ha: 125 g ai/ha; for pest or weed control at 500 g/ha: 500 g ai/ha", "how_it_was_run": "as §2"}, "[6]": {"test_system": "giant foxtail (Setaria faberi)", "assay": "Test A pre-/postemergence plant response", "conditions": "Setaria faberi, 240 h, read-out: Plant response rating, Foxtail, Giant; for pest or weed control at 125 g/ha: 125 g ai/ha; for pest or weed control at 500 g/ha: 500 g ai/ha", "how_it_was_run": "as §2"}, "[7]": {"test_system": "velvetleaf (Abutilon theophrasti)", "assay": "Test A pre-/postemergence plant response", "how_it_was_run": "as §2"}, "[8]": {"test_system": "morningglory (Ipomoea coccinea)", "assay": "Test A pre-/postemergence plant response", "how_it_was_run": "as §2"}, "corn (Zea mays)": {"test_system": "corn (Zea mays)", "assay": "Test A pre-/postemergence plant response", "conditions": "Zea mays, 240 h; for Corn plant response rating (crop injury, 0 = no effect, 100 = complete kill) at 125 g/ha: 125 g ai/ha; for Corn plant response rating (crop injury, 0 = no effect, 100 = complete kill) at 500 g/ha: 500 g ai/ha", "how_it_was_run": "as §2"}, "[9]": {"test_system": "barnyardgrass (Echinochloa crus-galli)", "assay": "Test A pre-/postemergence plant response", "conditions": "Echinochloa crus-galli, 240 h, read-out: Plant response rating, Barnyardgrass; for pest or weed control at 125 g/ha: 125 g ai/ha; for pest or weed control at 500 g/ha: 500 g ai/ha", "how_it_was_run": "as §2"}, "[10]": {"test_system": "pigweed (Amaranthus retroflexus)", "assay": "Test A pre-/postemergence plant response", "conditions": "Amaranthus retroflexus, 240 h, read-out: Plant response rating, Pigweed; for pest or weed control at 125 g/ha: 125 g ai/ha; for pest or weed control at 500 g/ha: 500 g ai/ha", "how_it_was_run": "as §2"}, "[11]": {"conditions": "Flood (flooded paddy test), 62 g ai/ha, scale 0 to 100, 0 no effect, 100 complete control"}, "[12]": {"conditions": "Flood (flooded paddy test), 125 g ai/ha, scale 0 to 100, 0 no effect, 100 complete control"}, "[13]": {"conditions": "Flood (flooded paddy test), 250 g ai/ha, scale 0 to 100, 0 no effect, 100 complete control"}, "[14]": {"conditions": "Flood, 31 g ai/ha, scale 0 to 100"}, "[15]": {"conditions": "post-emergence, Postemergence, 0 to 100 scale, 0 no effect, 100 complete control"}, "[16]": {"conditions": "pre-emergence, Preemergence, 0 to 100 scale (0 no effect, 100 complete control)"}, "[17]": {"conditions": "Postemergence, 125 g ai/ha, 0 to 100 scale, 0 no effect, 100 complete control"}, "[18]": {"conditions": "Postemergence, 500 g ai/ha, 0 to 100 scale, 0 no effect, 100 complete control"}, "[19]": {"conditions": "Preemergence, 125 g ai/ha, 0 to 100 scale (0 no effect, 100 complete control)"}, "[20]": {"conditions": "Preemergence, 500 g ai/ha, 0 to 100 scale (0 no effect, 100 complete control)"}}, "note": "Read-outs that look alike come from different tables or passages of the source.", "data": [{"smiles": "CCc1cc(-c2ccc(C(F)(F)F)cc2)nn1-c1c(O)cnn(C)c1=O", "note": "[Compound 11, 4-[5-ethyl-3-[4-(trifluoromethyl)phenyl]-1H-pyrazol-1-yl]-5-hydroxy-2-methyl-3(2H)-pyridazinone]", "values": [{"measurement": "pest or weed control at 62 g/ha", "setting": "[1]; [11]", "value": 30, "unit": "%"}, {"measurement": "pest or weed control at 125 g/ha", "setting": "[1]; [12]", "value": 40, "unit": "%"}, {"measurement": "pest or weed control at 250 g/ha", "setting": "[1]; [13]", "value": 40, "unit": "%"}, {"measurement": "pest or weed control at 31 g/ha", "setting": "[1]; [14]", "value": 30, "unit": "%"}, {"measurement": "pest or weed control at 62 g/ha", "setting": "[2]; [11]", "value": 0, "unit": "%"}, {"measurement": "pest or weed control at 125 g/ha", "setting": "[2]; [12]", "value": 0, "unit": "%"}, {"measurement": "pest or weed control at 250 g/ha", "setting": "[2]; [13]", "value": 40, "unit": "%"}, {"measurement": "pest or weed control at 31 g/ha", "setting": "[2]; [14]", "value": 0, "unit": "%"}, {"measurement": "plant injury at 62 g/ha", "setting": "rice (Oryza sativa); [11]", "value": 30, "unit": "%"}, {"measurement": "plant injury at 125 g/ha", "setting": "rice (Oryza sativa); [12]", "value": 60, "unit": "%"}, {"measurement": "plant injury at 250 g/ha", "setting": "rice (Oryza sativa); [13]", "value": 70, "unit": "%"}, {"measurement": "plant injury at 31 g/ha", "setting": "rice (Oryza sativa); [14]", "value": 0, "unit": "%"}, {"measurement": "pest or weed control at 62 g/ha", "setting": "[3]; [11]", "value": 50, "unit": "%"}, {"measurement": "pest or weed control at 125 g/ha", "setting": "[3]; [12]", "value": 65, "unit": "%"}, {"measurement": "pest or weed control at 250 g/ha", "setting": "[3]; [13]", "value": 75, "unit": "%"}, {"measurement": "pest or weed control at 31 g/ha", "setting": "[3]; [14]", "value": 40, "unit": "%"}, {"measurement": "plant injury at 125 g/ha", "setting": "[4]; [15]", "value": 80, "unit": "%"}, {"measurement": "plant injury at 500 g/ha", "setting": "[4]; [15]", "value": 100, "unit": "%"}, {"measurement": "plant injury at 125 g/ha", "setting": "[4]; [16]", "value": 100, "unit": "%"}, {"measurement": "plant injury at 500 g/ha", "setting": "[4]; [16]", "value": 100, "unit": "%"}, {"measurement": "pest or weed control at 125 g/ha", "setting": "[5]; [15]", "value": 90, "unit": "%"}, {"measurement": "pest or weed control at 500 g/ha", "setting": "[5]; [15]", "value": 100, "unit": "%"}, {"measurement": "pest or weed control at 125 g/ha", "setting": "[5]; [16]", "value": 100, "unit": "%"}, {"measurement": "pest or weed control at 500 g/ha", "setting": "[5]; [16]", "value": 100, "unit": "%"}, {"measurement": "pest or weed control at 125 g/ha", "setting": "[6]; [15]", "value": 90, "unit": "%"}, {"measurement": "pest or weed control at 500 g/ha", "setting": "[6]; [15]", "value": 100, "unit": "%"}, {"measurement": "pest or weed control at 125 g/ha", "setting": "[6]; [16]", "value": 100, "unit": "%"}, {"measurement": "pest or weed control at 500 g/ha", "setting": "[6]; [16]", "value": 100, "unit": "%"}, {"measurement": "Plant response rating, Velvetleaf", "setting": "[7]; [17]", "value": 0}, {"measurement": "Plant response rating, Velvetleaf", "setting": "[7]; [18]", "value": 0}, {"measurement": "Plant response rating, Velvetleaf", "setting": "[7]; [19]", "value": 0}, {"measurement": "Plant response rating, Velvetleaf", "setting": "[7]; [20]", "value": 0}, {"measurement": "Plant response rating, Morningglory", "setting": "[8]; [17]", "value": 0}, {"measurement": "Plant response rating, Morningglory", "setting": "[8]; [18]", "value": 0}, {"measurement": "Plant response rating, Morningglory", "setting": "[8]; [19]", "value": 0}, {"measurement": "Plant response rating, Morningglory", "setting": "[8]; [20]", "value": 30}, {"measurement": "Corn plant response rating (crop injury, 0 = no effect, 100 = complete kill) at 125 g/ha", "setting": "corn (Zea mays); [15]", "value": 90, "unit": "%"}, {"measurement": "Corn plant response rating (crop injury, 0 = no effect, 100 = complete kill) at 500 g/ha", "setting": "corn (Zea mays); [15]", "value": 90, "unit": "%"}, {"measurement": "Corn plant response rating (crop injury, 0 = no effect, 100 = complete kill) at 125 g/ha", "setting": "corn (Zea mays); [16]", "value": 90, "unit": "%"}, {"measurement": "Corn plant response rating (crop injury, 0 = no effect, 100 = complete kill) at 500 g/ha", "setting": "corn (Zea mays); [16]", "value": 100, "unit": "%"}, {"measurement": "pest or weed control at 125 g/ha", "setting": "[9]; [15]", "value": 100, "unit": "%"}, {"measurement": "pest or weed control at 500 g/ha", "setting": "[9]; [15]", "value": 100, "unit": "%"}, {"measurement": "pest or weed control at 125 g/ha", "setting": "[9]; [16]", "value": 100, "unit": "%"}, {"measurement": "pest or weed control at 500 g/ha", "setting": "[9]; [16]", "value": 100, "unit": "%"}, {"measurement": "pest or weed control at 125 g/ha", "setting": "[10]; [15]", "value": 0, "unit": "%"}, {"measurement": "pest or weed control at 500 g/ha", "setting": "[10]; [15]", "value": 0, "unit": "%"}, {"measurement": "pest or weed control at 125 g/ha", "setting": "[10]; [16]", "value": 0, "unit": "%"}, {"measurement": "pest or weed control at 500 g/ha", "setting": "[10]; [16]", "value": 30, "unit": "%"}]}]}
